Data as given in article PMC9574927 (Journal of Medicinal Chemistry, 2022).

Columns and labels:
in vivo = conditions: male, CD-1, mouse, po, 100 mg/kg
[1] = mouse
SARS-CoV-2 M^pro = SARS-CoV-2 M^pro (Severe acute respiratory syndrome coronavirus 2, UniProt P0DTD1); format: biochemical

SMILES | CL/F (in vivo) [mL/min/kg] | lung tissue Cmax ([1]; 25 mg/kg inhalative) | time of first appearance in plasma and urine post administration ([1]; 25 mg/kg inhalative) [min] | BALF concentrations at 5 h post administration (in words) ([1]; 100 mg/kg peroral, DOPS LUV formulation) | time up to which found in plasma and lung tissue ([1]; single inhalative dose 25 mg/kg) | activity against Mpro in words (SARS-CoV-2 M^pro)
CC(C)(C)OC(=O)Nc1cccn([C@@H](CC2CC2)C(=O)N[C@@H](C[C@@H]2CCNC2=O)C(=O)C(=O)NCc2ccccc2)c1=O [Compound 13b-K, tert-Butyl (1-((S)-1-(((S)-4-(Benzylamino)-3,4-dioxo-1-((S)-2-oxopyrrolidin-3-yl)butan-2-yl)amino)-3-cyclopropyl-1-oxopropan-2-yl)-2-oxo-1,2-dihydropyridin-3-yl)carbamate] | 1160 | 261,748 ± 1294.4 ng/g | ≤ 15 | in the same range as after inhalative administration of 25 mg/kg | up to 24 h | 
CC(C)(C)OC(=O)Nc1cccn([C@H](CC2CC2)C(=O)N[C@@H](C[C@@H]2CCNC2=O)C(=O)C(=O)NCc2ccccc2)c1=O [Compound 13b-H, tert-Butyl (1-((R)-1-(((S)-4-(Benzylamino)-3,4-dioxo-1-((S)-2-oxopyrrolidin-3-yl)butan-2-yl)amino)-3-cyclopropyl-1-oxopropan-2-yl)-2-oxo-1,2-dihydropyridin-3-yl)carbamate] |  |  |  |  |  | nearly inactive
